Square brackets hold non-standard residues; d marks the D form. Peptide text beside a SMILES is read from it. * marks the point of attachment. Sta = CC(C)C[C@H](N)[C@@H](O)CC(=O)O; NHCH2(2-pyridyl) = c1ccc(CN*)nc1; αMeP = C[C@@]1(C(=O)O)CCCN1; Boc = CC(C)(C)OC(=O)*
Assays:
Renin (Sus scrofa) = test: In vitro inhibition against hog renin.
Renin = biological target: T1, Renin (Homo sapiens, UniProt P00797); test: In vitro inhibition against human plasma renin.; type: cell-free
T1 sequence (P00797 whole entry): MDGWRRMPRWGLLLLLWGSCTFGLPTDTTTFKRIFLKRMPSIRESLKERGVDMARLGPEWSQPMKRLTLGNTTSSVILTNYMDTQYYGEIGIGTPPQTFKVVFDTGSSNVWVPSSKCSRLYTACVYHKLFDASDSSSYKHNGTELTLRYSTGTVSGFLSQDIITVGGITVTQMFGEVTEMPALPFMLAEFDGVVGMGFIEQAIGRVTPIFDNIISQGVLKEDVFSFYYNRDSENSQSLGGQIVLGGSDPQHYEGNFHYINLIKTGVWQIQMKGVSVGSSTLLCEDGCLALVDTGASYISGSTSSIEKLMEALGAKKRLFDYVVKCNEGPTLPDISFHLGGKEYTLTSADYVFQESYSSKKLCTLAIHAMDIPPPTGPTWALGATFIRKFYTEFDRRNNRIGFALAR

| Structure (SMILES) | IC50 (Renin (Sus scrofa)) | IC50 (Renin) |
| --- | --- | --- |
| CC[C@H](C)[C@H](NC(=O)[C@@H](NC[C@H](O)[C@H](CC(C)C)NC(=O)[C@H](Cc1c[nH]cn1)N(C)C(=O)[C@H](Cc1ccccc1)NC(=O)[C@@H]1CCCN1C(=O)OC(C)(C)C)C(C)C)C(=O)NCc1ccccn1 | 40 nM |  |
| CC[C@H](C)[C@H](NC(=O)C[C@H](O)[C@H](CC(C)C)NC(=O)[C@H](Cc1ccccc1)NC(=O)[C@H](Cc1ccccc1)NC(=O)[C@]1(C)CCCN1C(=O)OC(C)(C)C)C(=O)NCc1ccccn1 (Boc-[αMeP]FF[Sta]I-{NHCH2(2-pyridyl)}) |  | 36 nM |
| CC[C@H](C)[C@H](NC(=O)[C@@H](NC[C@H](CC(C)C)NC(=O)[C@H](Cc1c[nH]cn1)NC(=O)[C@H](Cc1ccccc1)NC(=O)[C@]1(C)CCCN1C(=O)OC(C)(C)C)C(C)C)C(=O)NCc1ccccn1 |  | 43 nM |
| CC[C@H](C)[C@H](NC(=O)C[C@H](O)[C@H](CC(C)C)NC(=O)[C@H](Cc1c[nH]cn1)NC(=O)[C@H](Cc1ccccc1)NC(=O)[C@]1(C)CCCN1C(=O)OC(C)(C)C)C(=O)NCc1ccccn1 (Boc-[αMeP]FH[Sta]I-{NHCH2(2-pyridyl)}) |  | 3.5 nM |
